PubChem BioAssay AID1259408 (Genetic Toxicology Data Bank (GENE-TOX), 2018)
Calls of active or inactive are those of the source. The rule behind the calls is not given here.

System: GENE-TOX genotoxicity assays, various organisms and cells
Experiment: GENE-TOX mutagenicity studies
Settings: for call: Assay Type: In vivo carcinogenicity studies
[1] = Species/Cell Type: Nonhuman, Assay Code: CCG+, Evaluation Type: Evaluation A (Pre-1980)
[2] = Species/Cell Type: Arabidopsis species, Assay Type: Gene mutation, Assay Code: ARM+, Evaluation Type: Evaluation A (Pre-1980)
[3] = Species/Cell Type: Salmonella typhimurium (one or more of the five standard strains: TA98, TA100, TA1535, TA1537, and TA1538), Assay Type: Histidine reverse gene mutation, Ames assay, Assay Code: SAL+*, Activation: With metabolic activation, Evaluation Type: Evaluation A (Pre-1980)
[4] = Species/Cell Type: Salmonella typhimurium (one or more of the five standard strains: TA98, TA100, TA1535, TA1537, and TA1538), Assay Type: Histidine reverse gene mutation, Ames assay, Assay Code: SAL+, Evaluation Type: Evaluation A (Pre-1980)
[5] = Species/Cell Type: Salmonella typhimurium (one or more of the five standard strains: TA98, TA100, TA1535, TA1537, and TA1538), Assay Type: Histidine reverse gene mutation, Ames assay, Assay Code: SALT, Evaluation Type: Evaluation A (Pre-1980)
[6] = Species/Cell Type: Human lymphocytes, Assay Type: Sister-chromatid exchange (SCE) in vitro, Assay Code: SCL+D, Dose Response: With dose response, Evaluation Type: Evaluation B (Post-1980)
[7] = Species/Cell Type: Human, Assay Type: Sister-chromatid exchange (SCE) in vitro, Assay Code: SC1+D, Dose Response: With dose response, Evaluation Type: Evaluation B (Post-1980)
[8] = Species/Cell Type: Bacillus subtilis (H17 vs M45T), Assay Type: Rec-assay, spot test, DNA effects (bacterial DNA repair), Assay Code: REXT, Evaluation Type: Evaluation A (Pre-1980)
[9] = Species/Cell Type: Nonhuman, Assay Type: Sister-chromatid exchange (SCE) in vitro, Assay Code: SC2+D, Dose Response: With dose response, Evaluation Type: Evaluation B (Post-1980)

## Nc1ccc2c(c1)C(=O)c1ccccc1C2=O
[1]
  call: active; positive

## CCCCN(C)N=O
[2]
  mutagenic call: active; positive
Species/Cell Type: Escherichia coli polA (W3119 vs P3478), Assay Type: Rec-assay, DNA effects (bacterial DNA repair), Assay Code: RE1T, Evaluation Type: Evaluation A (Pre-1980)
  mutagenic call: no conclusion
[3]
  mutagenic call: active; positive

## CCCCCCCCCCCCCCCCCCN(CCO)CCCN(CCO)CCO
Species/Cell Type: Mammalian polychromatic erythrocytes, Assay Type: Micronucleus test, chromosome aberrations, Assay Code: MNTT, Evaluation Type: Evaluation B (Post-1980)
  mutagenic call: no conclusion

## CCNC(=O)Nc1ncc([N+](=O)[O-])s1
[1]
  call: active; positive

## CCOc1nc2c(c(=O)n(C)c(=O)n2C)n1C
Species/Cell Type: Allium cepa, Assay Type: Chromosome aberrations, Assay Code: ALC+D, Dose Response: With dose response, Evaluation Type: Evaluation A (Pre-1980)
  mutagenic call: active; positive
[2]
  mutagenic call: active; positive
Species/Cell Type: Human lymphocytes or leukocytes, Assay Type: Chromosome aberrations in vitro, Assay Code: CY7+, Evaluation Type: Evaluation A (Pre-1980)
  mutagenic call: active; positive
Species/Cell Type: Nonhuman, Assay Type: Chromosome aberrations in vitro, Assay Code: CY&+, Evaluation Type: Evaluation A (Pre-1980)
  mutagenic call: active; positive
Species/Cell Type: Nonhuman, Assay Type: Sister-chromatid exchange (SCE) in vitro, Assay Code: SC2-, Evaluation Type: Evaluation B (Post-1980)
  mutagenic call: inactive; negative
Species/Cell Type: Nonhuman, Assay Type: Sister-chromatid exchange (SCE) in vitro, Assay Code: SC2T, Evaluation Type: Evaluation A (Pre-1980)
  mutagenic call: no conclusion
Species/Cell Type: Vicia faba, Assay Type: Chromosome aberrations, Assay Code: VIC+, Evaluation Type: Evaluation A (Pre-1980)
  mutagenic call: active; positive

## C(CCC1CO1)CC1CO1 (stereo not given)
Species/Cell Type: Neurospora crassa, Assay Type: Forward gene mutation, Assay Code: NEF+, Evaluation Type: Evaluation A (Pre-1980)
  mutagenic call: active; positive
[4]
  mutagenic call: active; positive

## O=c1[nH]cc(Cl)c(=O)[nH]1
Species/Cell Type: Mouse, Sex: Male, Assay Type: Specific locus test, gene mutation, Assay Code: SLTT, Evaluation Type: Evaluation A (Pre-1980)
  mutagenic call: no conclusion

## O=CC1CO1 (stereo not given)
Species/Cell Type: Escherichia coli polA (W3119 vs P3478), Assay Type: Rec-assay, DNA effects (bacterial DNA repair), Assay Code: RE1+, Evaluation Type: Evaluation A (Pre-1980)
  mutagenic call: active; positive
Species/Cell Type: Human diploid fibroblasts, Assay Type: Unscheduled DNA synthesis (UDS) in vitro, DNA effects, Assay Code: UDH+, Evaluation Type: Evaluation A (Pre-1980)
  mutagenic call: active; positive
Species/Cell Type: Mouse (BALB/c-3T3) cells, Assay Type: Cell transformation, Assay Code: CTB+D, Dose Response: With dose response, Evaluation Type: Evaluation A (Pre-1980)
  mutagenic call: active; positive
[1]
  call: active; positive
Species/Cell Type: Saccharomyces cerevisiae, Assay Type: Mitotic recombination or gene conversion, Assay Code: YEH+, Evaluation Type: Evaluation A (Pre-1980)
  mutagenic call: active; positive
[4]
  mutagenic call: active; positive
Species/Cell Type: Salmonella typhimurium, Assay Type: Forward and reverse gene mutation, host-mediated assay, Assay Code: HMA+, Evaluation Type: Evaluation A (Pre-1980)
  mutagenic call: active; positive
Species/Cell Type: Syrian hamster embryo (SHE) cells, Assay Type: Cell transformation, clonal assay, Assay Code: CTC+, Evaluation Type: Evaluation A (Pre-1980)
  mutagenic call: active; positive

## Cc1c2ccccc2c(C)c2c3c(ccc12)[C@H](O)[C@@H](O)C=C3
Species/Cell Type: Chinese hamster lung (V79) cells, Assay Type: Forward gene mutation at the HPRT or ouabain locus, Assay Code: V79+, Evaluation Type: Evaluation A (Pre-1980)
  mutagenic call: active; positive
Species/Cell Type: Mouse prostate cells, Assay Type: Cell transformation, Assay Code: CTM+, Evaluation Type: Evaluation A (Pre-1980)
  mutagenic call: active; positive
Species/Cell Type: Nonhuman, Assay Code: CCG+L, Evaluation Type: Evaluation A (Pre-1980)
  call: active; positive

## CC(=O)c1cc([N+](=O)[O-])c[nH]1
[5]
  mutagenic call: no conclusion

## CC=Cc1ccccc1O
[6]
  mutagenic call: active; positive
[7]
  mutagenic call: active; positive

## Cc1cc(C)cc(OC(=O)N(C)N=O)c1
Species/Cell Type: Bacillus subtilis (H17 vs M45T), Assay Type: Rec-assay, spot test, DNA effects (bacterial DNA repair), Assay Code: REX+, Evaluation Type: Evaluation A (Pre-1980)
  mutagenic call: active; positive
Species/Cell Type: Escherichia coli WP2, Assay Type: Tryptophan reverse gene mutation, Assay Code: WP2+, Evaluation Type: Evaluation A (Pre-1980)
  mutagenic call: active; positive

## CC[C@@]1(O)C[C@H](O[C@H]2C[C@H](NC)[C@H](O)[C@H](C)O2)c2c(cc3c(c2O)C(=O)c2c(O)cccc2C3=O)[C@H]1C(=O)OC
[5]
  mutagenic call: no conclusion

## O=C1OC2(c3ccccc31)c1cc(I)c(O)c(I)c1Oc1c2cc(I)c(O)c1I
Species/Cell Type: Bacillus subtilis (H17 vs M45), Assay Type: Rec-assay, spot test, DNA effects (bacterial DNA repair), Assay Code: REW-, Evaluation Type: Evaluation A (Pre-1980)
  mutagenic call: inactive; negative
[8]
  mutagenic call: no conclusion
Species/Cell Type: Mammalian polychromatic erythrocytes, Assay Type: Micronucleus test, chromosome aberrations, Assay Code: MNT+, Evaluation Type: Evaluation B (Post-1980)
  mutagenic call: active; positive
Species/Cell Type: Saccharomyces cerevisiae, Assay Type: Mitotic recombination or gene conversion, Assay Code: YEC-, Evaluation Type: Evaluation A (Pre-1980)
  mutagenic call: inactive; negative
Species/Cell Type: Salmonella typhimurium (one or more of the five standard strains: TA98, TA100, TA1535, TA1537, and TA1538), Assay Type: Histidine reverse gene mutation, Ames assay, Assay Code: SAL-, Evaluation Type: Evaluation A (Pre-1980)
  mutagenic call: inactive; negative

## O=C1c2ccccc2C(=O)c2c1ccc(OCCCS(=O)(=O)O)c2O
[3]
  mutagenic call: active; positive

## Cc1cc(-c2ccc(N)c(C)c2)ccc1N
Species/Cell Type: Fischer rat embryo (RLV/1706) cells, Assay Type: Cell transformation, viral enhanced, Assay Code: CTR+, Evaluation Type: Evaluation A (Pre-1980)
  mutagenic call: active; positive
Species/Cell Type: Human diploid fibroblasts, Assay Type: Unscheduled DNA synthesis (UDS) in vitro, DNA effects, Assay Code: UDHT, Evaluation Type: Evaluation A (Pre-1980)
  mutagenic call: no conclusion
Species/Cell Type: Mammalian polychromatic erythrocytes, Assay Type: Micronucleus test, chromosome aberrations, Assay Code: MNT+, Evaluation Type: Evaluation A (Pre-1980)
  mutagenic call: active; positive
[1]
  call: active; positive
[9]
  mutagenic call: active; positive
[3]
  mutagenic call: active; positive

## Cc1ccc(N=Nc2ccc(N(C)C)cc2)cc1
Species/Cell Type: Rat primary hepatocytes, Assay Type: Unscheduled DNA synthesis (UDS) in vitro, DNA effects, Assay Code: UDP-, Evaluation Type: Evaluation A (Pre-1980)
  mutagenic call: inactive; negative

## Cc1cc(C)cc(C2CO2)c1 (stereo not given)
[6]
  mutagenic call: active; positive
[7]
  mutagenic call: active; positive

## CCOP(=S)(OCC)SCSc1ccc(Cl)cc1
Species/Cell Type: Human, Assay Type: Sister-chromatid exchange (SCE) in vitro, Assay Code: SC1+, Evaluation Type: Evaluation B (Post-1980)
  mutagenic call: active; positive

## O=[N+]([O-])c1ccccc1O
Species/Cell Type: Allium cepa, Assay Type: Chromosome aberrations, Assay Code: ALC-, Evaluation Type: Evaluation A (Pre-1980)
  mutagenic call: inactive; negative

## CCCCCCCCCC(=O)OCCCN1CCN(C2Cc3ccccc3Sc3ccc(SC)cc32)CC1 (stereo not given)
Species/Cell Type: Rodents, Sex: Male, Assay Type: Dominant lethal test, Assay Code: DLT-, Evaluation Type: Evaluation A (Pre-1980)
  mutagenic call: inactive; negative

## O=CONC(=O)c1ccc2ccccc2c1
[9]
  mutagenic call: active; positive

## O=c1[nH]c(=O)c2[nH]cnc2[nH]1
Species/Cell Type: Drosophila melanogaster, Assay Type: Sex-linked recessive lethal gene mutation, Assay Code: SRLT, Evaluation Type: Evaluation A (Pre-1980)
  mutagenic call: no conclusion

## CC(=O)[O-].CC(=O)[O-].CC(=O)[O-].[Sb+3]
Species/Cell Type: Syrian hamster embryo (SA7/SHE) cells, Assay Type: Cell transformation, viral enhanced, Assay Code: CT7+, Evaluation Type: Evaluation A (Pre-1980)
  mutagenic call: active; positive

## CS/C(C)=N/OC(=O)N(C)N=O
[4]
  mutagenic call: active; positive

## N#Cc1cccc2c([N+](=O)[O-])cccc12
[8]
  mutagenic call: no conclusion
Species/Cell Type: Escherichia coli WP2, Assay Type: Tryptophan reverse gene mutation, Assay Code: WP2-, Evaluation Type: Evaluation A (Pre-1980)
  mutagenic call: inactive; negative
Species/Cell Type: Escherichia coli WP2 UVRA, Assay Type: Tryptophan reverse gene mutation, Assay Code: WPU+, Evaluation Type: Evaluation A (Pre-1980)
  mutagenic call: active; positive
Species/Cell Type: Nonhuman, Assay Type: Sister-chromatid exchange (SCE) in vitro, Assay Code: SC2+, Evaluation Type: Evaluation B (Post-1980)
  mutagenic call: active; positive
[4]
  mutagenic call: active; positive
